Literature values, collected in patent publication US12502373B2, “High-content abamectin emulsifiable concentrate” (Rotam Agrochem International Company Limited, priority 2021, dated 2025).

Legend:
[1] = pH: 5-9 and 25° C.
[2] = system: rats

Q: Which “hydrolysis of the aqueous solution” value [1] does the source give for Abamectin here?
A: will not be hydrolysed

Q: And the “oral LD50” value [2]?
A: 1470 mg/kg
